# Experimental data published in patent publication EP1873155A1, “Inhibitors of the HIV integrase enzyme” (PFIZER INC., priority 2004, dated 2005).
# Target: HIV-1 integrase
# Assay: Integrase strand-transfer scintillation proximity assay
# Format: biochemical
# Conditions: full-length wild type HIV-1 integrase (SF1), 50 min at 37°C
# Description: The annealed product represents preprocessed viral ds-DNA derived from the LTR U5 sequence of the viral genome.
# The radiolabeled product was purified using a NENSORB cartridge and stored in stabilized aqueous solution (PerkinElmer).
# White, polystyrene, flat-bottom, non-binding surface, 96-well plates were purchased from Corning.
# Supernant was discarded and pellet resuspended in 50 mM HEPES pH 7.0, 750 mM NaCl, 5 mM DTT, 1 mM AEBSF and homogenized in a 40 mL Dounce homogenizer for 20 minutes on ice. […] Supernant was discarded and pellet resuspended in 50 mM HEPES pH 7.0, 750 mM NaCl, 25 mM CHAPS, 5 mM DTT, 1 mM AEBSF.
# Supernant was then diluted 1:1 with 50 mM HEPES pH 7.0, 25 mM CHAPS, 1 mM DTT, 1 mM AEBSF and loaded onto a Q-Sepharose column pre-equilibrated with 50 mM HEPES, pH 7.0, 375 mM NaCl, 25 mM CHAPS, 1 mM DTT, 1 mM AEBSF. The flow through peak was collected and NaCl diluted to 0.1 M with 50 mM HEPES pH 7.0, 25 mM CHAPS, 1 mM DTT, 0.5 mM AEBSF and loaded onto a SP-Sepharose column pre-equilibrated with 50 mM HEPES pH 7.0, 100 mM NaCl, 25 mM CHAPS, 1 mM DTT, 0.5 mM AEBSF. After washing the column with the equilibration buffer, a 100 to 400 mM NaCl gradient was run. The eluted integrase was concentrated and run on a S-300 gel diffusion column using 50 mM HEPES pH 7.0, 500 mM NaCl, 25 mM CHAPS, 1 mM DTT, 0.5 mM AEBSF. […]
row,Compound,IC50
1,"(3R)-1-{[3-(4-fluorobenzyl)-7-hydroxy-6-oxo-6,7-dihydro-3H-pyrrolo[2,3-c]-1,7-naphthyridin-1-yl]methyl)-N,N-dimethylpyrrolidine-3-carboxamide [Example 17]",9 nM
2,"1-[({[(4R)-2,2-dimethyl-1,3-dioxolan-4-yl]methyl}amino)meth yl]-3-(4-fluorobenzyl)-7-hydroxy-3,7-dihydro-6H-pyrrolo[2,3-c]-1,7-naphthyridin-6-one [Example 35]",45 nM

# System: RF strain of HIV-1
# Assay: HIV-1 cell protection assay (XTT dye reduction)
# Format: cell-based
# Conditions: Human immunodeficiency virus 1, CEM-SS, 144 h
# Description: Example 61: HIV-1 Cell Protection Assay
# The antiviral activities of potential modulator compounds (test compounds) were determined in HIV-1 cell protection assays using the RF strain of HIV-1, CEM-SS cells, and the XTT dye reduction method (Weislow, O.S. et al., J. Natl. Cancer Inst. 81: 577-586 (1989)). Subject cells were infected with HIV-1 RF virus at an moi of 0.025 to 0.819 or mock infected with medium only and added at 2 x 10^4 cells per well into 96 well plates containing half-log dilutions of test compounds. Six days later, 50 µl of XTT solution (1 mg/ml XTT tetrazolium and […] phenazine methosulfate) were added to the wells and the plates were reincubated for four hours. Viability, as determined by the amount of XTT formazan produced, was quantified spectrophotometrically by absorbance at 450 nm.
# Data from CPE assays were expressed as the percent of formazan produced in compound-treated cells compared to formazan produced in wells of uninfected, compound-free cells. […] The therapeutic index was calculated by dividing the cytotoxicity (CC50) by the antiviral activity (EC50).
row,Compound,EC50
1,"O=C1c2ncc3c(ccn3Cc3ccc(F)cc3)c2CCN1O [Example 2, 3-(4-Fluorobenzyl)-7-hydroxy-3,7,8,9-tetrahydro-6H-pyrrolo[2,3-c]-1,7-naphthyridin-6-one]",0.6 nM
2,"O=C(NCC(F)(F)F)c1cn(Cc2ccc(F)cc2)c2cnc3c(=O)n(O)ccc3c12 [Example 30, 3-(4-fluorobenzyl)-7-hydroxy-6-oxo-N-(2,2,2-trifluoroethyl)-6,7-dihydro-3H-pyrrolo[2,3-c]-1,7-naphthyridine-1-carboxamide]",13 nM
3,"CC(=O)N1CCN(C(=O)c2cn(Cc3ccc(F)cc3)c3cnc4c(=O)n(O)ccc4c23)CC1 [Example 27, 1-[(4-acetylpiperazin-1-yl)carbonyl]-3-(4-fluorobenzyl)-7-hydroxy-3,7-dihydro-6H-pyrrolo[2,3-c]-1,7-naphthyridin-6-one]",19 nM

# Same assay, conditions: Human immunodeficiency virus 1, CEM-SS, 144 h, CEM-SS cells infected with HIV-1 RF, six days, XTT formazan; read-out: EC50
row,Compound,EC50
1,"CCN(Cc1ccc(C)cc1)Cc1cn(Cc2ccc(F)cc2)c2cnc3c(=O)n(O)ccc3c12 [Example 51, 1-{[ethyl(4-methylbenzyl)amino]methyl}-3-(4-fluorobenzyl)-7-hydroxy-3,7-dihydro-6H-pyrrolo[2,3-c]-1,7-naphthyridin-6-one]",1.3 nM
2,"CN(Cc1cnn(-c2ccccc2)c1)Cc1cn(Cc2ccc(F)cc2)c2cnc3c(=O)n(O)ccc3c12 [Example 59, 3-(4-fluorobenzyl)-7-hydroxy-1-({methyl[(1-phenyl-1 H-pyrazol-4-yl)methyl]amino}methyl)-3,7-dihydro-6H-pyrrolo[2,3-c]-1,7-naphthyridin-6-one]",0.74 nM
3,"Cc1cccc(CNCc2cn(Cc3ccc(F)cc3)c3cnc4c(=O)n(O)ccc4c23)c1 [Example 41, 3-(4-fluorobenzyl)-7-hydroxy-1-{[(3-methylbenzyl)amino]methyl}-3,7-dihydro-6H-pyrrolo[2,3-c]-1,7-naphthyridin-6-one]",3 nM
4,"O=C1NCCC12CCN(Cc1cn(Cc3ccc(F)cc3)c3cnc4c(=O)n(O)ccc4c13)CC2 [Example 13, 3-(4-fluorobenzyl)-7-hydroxy-1-[(1-oxo-2,8-diazaspiro[4.5]dec-8-yl)methyl]-3,7-dihydro-6H-pyrrolo[2,3-c]-1,7-naphthyridin-6-one]",13 nM
5,"O=C1NC[C@@H]2CCN(Cc3cn(Cc4ccc(F)cc4)c4cnc5c(=O)n(O)ccc5c34)C[C@H]12 [Example 56, 3-(4-fluorobenzyl)-7-hydroxy-1-{[(3aR,7aR)-3-oxooctahydro-5H-pyrrolo[3,4-c]pyridin-5-yl]methyl}-3,7-dihydro-6H-pyrrolo[2,3-c]-1,7-naphthyridin-6-one]",14 nM
6,"O=c1c2ncc3c(c(CN4CCN(CCN5CCOCC5)CC4)cn3Cc3ccc(F)cc3)c2ccn1O [Example 58, 3-(4-fluorobenzyl)-7-hydroxy-1-{[4-(2-morpholin-4-ylethyl)piperazin-1-yl]methyl}-3,7-dihydro-6H-pyrrolo[2,3-c]-1,7-naphthyridin-6-one]",32 nM
7,"CN(C)S(=O)(=O)c1cn(Cc2ccc(F)cc2)c2cnc3c(=O)n(O)ccc3c12 [Example 23, 3-(4-fluorobenzyl)-7-hydroxy-N,N-dimethyl-6-oxo-6,7-dihydro-3H-pyrrolo[2,3-c]-1,7-naphthyridine-1-sulfonamide]",4 nM
